pIC50: −log10 of the molar value.
What was measured:
[1] = Cassette pharmacokinetics studies in mice; assay type: in vivo; details: male, Balb/c, plasma; Mouse, PO, 5 mg/kg
Experimental: Pharmacokinetics studies were conducted using cassette dosing protocols, with test compounds administered per mouse. Treatment groups were 3 mice (˜6-8 weeks old, ˜20-30 g Balb/c male mice) per route of administration. Compounds were formulated in 5% DMSO and 95% PEG400 with final concentrations of 0.5 mg/mL for IV and PO dosing. Compounds were dosed at 2 mg/kg for IV dosing and 5 mg/kg for PO dosing. Blood samples were withdrawn at 0.083, 0.25, 0.5, 1.0, 2.0, 4.0, 6.0, 8.0, and 24 hours following IV dosing, and 0.25, 0.5, 1.0, 2.0, 4.0, 6.0, 8.0, and 24 hours following PO dosing. Blood samples were centrifuged at 4,000 g for 5 minutes at 4° C. to obtain plasma samples. Plasma samples were diluted with acetonitrile containing internal standard, vortexed for 30 seconds, then centrifuged at 4,000 rpm for 15 minutes at 4° C. The supernatant was diluted with water, and compound concentration was determined by HPLC/MS/MS compared to calibration standards of 0.5-1,000 ng/mL.
Where route is listed as “IV*”, the compound was dosed IV at 1 mg/kg.

[2] = system: Phosphorylation of ERK1/2 in AsPC1 cells; assay: 4 hour pERK1/2 HTRF Assay; assay type: cell-based; details: Homo sapiens, ASPC1, read-out: pERK AsPC-1 HTRF (4 hour): Average IC50 (nM); AsPC-1, 4 hour
Experimental: AsPC1 cells were seeded at 20,000 cells/well overnight in 96-well plates, then treated with a 12-point dose response of compounds (Starting dose of 3000 nM and 3-fold dilution) for 4 hours. AsPC1 cells are a K-Ras mutant cell line. Phosphorylation of ERK1/2 on residues Thr202 and Tyr204 were detected using a Homogenous Time-Resolved Fluorescence (HTRF) assay (Cisbio Cat #64ERKPEG). Briefly, ERK phosphorylation was detected using a sandwich assay format using two phospho-ERK specific antibodies, one labelled with EU^3+-Cryptate (donor) and the second with d2 (acceptor). The Fluorescence Resonance Energy Transfer (FRET) towards the d2 acceptor was detected at a wavelength of 665 nm. ERK1/2 phosphorylation levels were normalized to total ERK1/2 protein levels in each well. IC50 values were determined by fitting a variable slope, four parameters curve to the compound concentration to normalized Phospho-ERK1/2 relationship.

Pharmacokinetics in rat = assay type: in vivo; details: plasma, IV, 1 mg/kg; for Vd: read-out: Vdss
MEK1-CRAF complex = MEK1-CRAF complex (Homo sapiens (Human), UniProt Q02750); assay: Stabilization of MEK1-CRAF complex assay (AlphaLISA); assay type: binding
Chain of MEK1-CRAF complex (Q02750 whole entry, looked up): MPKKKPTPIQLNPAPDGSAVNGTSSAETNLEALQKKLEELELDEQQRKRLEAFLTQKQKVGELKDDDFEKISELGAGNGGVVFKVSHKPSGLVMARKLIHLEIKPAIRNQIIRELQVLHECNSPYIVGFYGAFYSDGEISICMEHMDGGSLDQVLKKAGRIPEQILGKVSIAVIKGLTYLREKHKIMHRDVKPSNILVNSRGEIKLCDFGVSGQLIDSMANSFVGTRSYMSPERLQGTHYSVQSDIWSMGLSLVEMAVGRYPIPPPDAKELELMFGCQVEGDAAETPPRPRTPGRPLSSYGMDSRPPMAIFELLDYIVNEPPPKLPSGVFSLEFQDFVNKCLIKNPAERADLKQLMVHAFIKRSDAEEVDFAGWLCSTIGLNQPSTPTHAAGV
Chain of MEK1-CRAF complex (P04049 whole entry partner, looked up): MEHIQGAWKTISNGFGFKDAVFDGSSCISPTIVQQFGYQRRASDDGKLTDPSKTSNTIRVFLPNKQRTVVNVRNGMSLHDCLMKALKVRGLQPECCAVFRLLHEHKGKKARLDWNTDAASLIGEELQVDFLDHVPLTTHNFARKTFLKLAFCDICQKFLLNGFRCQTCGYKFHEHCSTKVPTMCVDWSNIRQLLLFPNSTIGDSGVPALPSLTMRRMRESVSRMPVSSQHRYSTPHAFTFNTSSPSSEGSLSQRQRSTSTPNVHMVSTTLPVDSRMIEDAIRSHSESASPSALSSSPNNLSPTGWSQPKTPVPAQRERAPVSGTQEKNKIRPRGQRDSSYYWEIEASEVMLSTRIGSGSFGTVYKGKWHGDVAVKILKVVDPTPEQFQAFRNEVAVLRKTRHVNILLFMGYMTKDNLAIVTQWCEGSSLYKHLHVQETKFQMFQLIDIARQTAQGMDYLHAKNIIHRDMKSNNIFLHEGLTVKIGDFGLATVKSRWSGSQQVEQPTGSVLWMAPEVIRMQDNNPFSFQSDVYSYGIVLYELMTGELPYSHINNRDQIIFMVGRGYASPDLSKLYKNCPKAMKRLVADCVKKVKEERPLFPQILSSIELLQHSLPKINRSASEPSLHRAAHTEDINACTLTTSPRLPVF
Experimental: MEK1 was diluted to 4 nM, and nickel chelate donor beads and glutathione acceptor beads were diluted to 80 μg/mL. CRAF was diluted to a top concentration of 160 nM, which was subsequently diluted to 80, 40, 20, 10, 5, 2.5, 1.25, and 0.625 nM through 1:2 serial dilution.
Exemplary MEK inhibitor compounds (0, 0.01, 0.1, or 1 μM) were added to a 384-AlphaPlate (PerkinElmer, 6008350) by a digital liquid dispenser (Tecan D300e) based on a total volume of 20 μL reaction mixture.
5 μL 4×MEK1 stock solution was added to wells A1-P20 by multichannel pipettes. The plate was sealed with clear olefin sealing tape (Thermo Scientific, 232701), centrifuged at 1000 rpm for 1 minute, and incubated at room temperature for 30 minutes.
5 μL 4×CRAF stock solution at different concentrations or 5 μL or 10 μL AlphaLISA buffer was added by multichannel pipettes. The plate was sealed, centrifuged at 1000 rpm for 1 minute, and incubated at room temperature for 60 minutes.
5 μL 4×glutathione acceptor beads were first added to all wells by multichannel pipettes. The ambient light was subsequently adjusted to <100 lux (light meter) before adding 5 μL 4×nickel chelate donor beads to the same wells. From this step on, the plate was covered with a black plate cover, centrifuged at 1000 rpm for 1 minute, and incubated at room temperature for 60 minutes.
Data were collected on a PHERAStar FSX (BMG LABTECH) using the AlphaLISA module (excitation: 680 nm, emission: 615 nm), with a gain of 3600. The excitation time was 0.30 seconds, and data collection started after a 0.04-second delay for a total integration time of 0.60 seconds.
The individual AlphaLISA counts of wells with exemplary MEK inhibitor compound were divided by the average AlphaLISA counts of wells without compound to obtain AlphaLISA signal/background ratio (S/B). The dissociation constant (KD) of MEK1-CRAF was calculated using nonlinear regression curve fit in GraphPad PRISM® 9.0 software.

uMEK/BRAF = uMEK/BRAF (Homo sapiens (Human), UniProt Q02750); assay: MEK-RAF Binding Assay (uMEK/BRAF HTRF)
Chain of uMEK/BRAF (Q02750 whole entry): as the sequence (Q02750 whole entry, looked up) above

cancer cell lines = assay: In vitro MEK inhibitor drug combinations (Cell Titer Glo, Loewe synergy); assay type: cell-based; details: combination with I-2, 5 days
Experimental: Cell viability was determined by Cell Titer Glo assay. […] A normalized Loewe sum of synergy score of >10 was considered synergistic, <10, but >−10 additive, and <−10 antagonistic.

[3] = system: OCI-AML-3 xenograft (NRAS Q61L); assay: In vivo efficacy, OCI-AML-3 xenograft model; design: species or system mouse; details: OCI-AML-3 model, 100 mg/kg QD, Day 15
Experimental: (§1) The antitumor activity of exemplary MEK inhibitor compounds is evaluated in vivo using human cell line derived xenografts (CDX) grown in immunodeficient mice. For these studies, AsPC1 (pancreatic cell line with KRAS G12D mutation), NCI-H2122 (lung cell line with KRAS G12C mutation), and 5637 (bladder cell line with CRAF amplification) models are used. In addition, HCT-116 (colorectal cell line with KRAS G13D mutation), SKM-1 (AML cell line with KRAS K117N mutation), and OCI-AML-3 (AML cell line with NRAS Q61L mutation) models are used. The tumor cell lines (AsPC-1, NCI-H2122, 5637, and HCT-116 cells) are maintained in vitro as monolayer culture in medium at 37° C. in an atmosphere of 5% CO2 in air. The tumor cell lines (SKM-1 and OCI-AML-3 cells) are maintained in vitro as a suspension in medium at 37° C. in an atmosphere of 5% CO2 in air. The tumor cells are routinely sub-cultured before confluence by trypsin-EDTA treatment, not to exceed 4-5 passages. The cells growing in an exponential growth phase are harvested for tumor inoculation. AsPC1, NCI-H2122, and OCI-AML-3 tumors are implanted into Balb/c nude mice. HCT-116 tumors are implanted into Nu/Nu mice. 5637 and SKM-1 tumors are implanted into NOG mice. Each mouse is inoculated subcutaneously on the right flank with tumor cells in a 1:1 mixture with matrigel. Tumors are allowed to grow to approximately 150-200 mm^3. At this time, mice are assigned to groups such that the mean tumor volume is the same for each treatment group. The MEK inhibitor compound treatments are administrated to the tumor-bearing mice via oral gavage. Throughout the study, mouse body weight and tumor volume are recorded. The measurement of tumor size is conducted twice weekly with a caliper and recorded. The tumor volume (mm^3) is estimated using the formula: TV=a×b^2/2, where “a” and “b” are long and short diameters of a tumor, respectively.

[4] = system: SKM-1 xenograft (KRAS K117N); assay: In vivo efficacy, SKM-1 xenograft model; design: species or system mouse; details: SKM-1 model, 100 mg/kg QD, Day 22
Experimental: as §1

[5] = AsPC-1, HPAF, MiaPACA2, NCI-H1373, NCI-H2122, PANC03276

| AUC(0-inf) [1] [ng·h/mL] | AUC(0-t) [1] [ng·h/mL] | Cmax [1] [ng/mL] | Tmax [1] [h] | half-life [1] [h] | IC50 [2] [nM] | pIC50 (uMEK/BRAF) | SMILES | Loewe Synergy Score > 10 (cancer cell lines; [5]) | further results |
| --- | --- | --- | --- | --- | --- | --- | --- | --- | --- |
| 511 | 506 | 418 | 0.4 | 1.11 | < 100 | > 7.00 | Cc1c(Oc2cccc(NS(=O)(=O)NC3CC3)c2Cl)c(C(=O)NC2CC2)c(Nc2ccc(I)cc2F)n(C)c1=O [Compound I-42] | – | AUC(0-inf) (Pharmacokinetics in rat): 217 ng·h/mL; AUC(0-t) (Pharmacokinetics in rat): 205 ng·h/mL; clearance (Pharmacokinetics in rat): 76.8 mL/min/kg; half-life (Pharmacokinetics in rat): 2.09 h; Vd (Pharmacokinetics in rat): 9.9 L/kg; KD Ratio (mean), compound to DMSO (MEK1-CRAF complex; compound 0.01 μM): 0.78; KD Ratio (mean), compound to DMSO (MEK1-CRAF complex; compound 0.1 μM): 0.57; KD Ratio (mean), compound to DMSO (MEK1-CRAF complex; compound 1 μM): 0.57 |
| 803 | 763 | 488 | 0.3 | 3.92 | < 100 | > 7.00 | CCNS(=O)(=O)Nc1cccc(Oc2c(C(=O)NC3CC3)c(Nc3ccc(I)cc3F)n(C)c(=O)c2C)c1Cl [Compound I-43] | – | KD Ratio (mean), compound to DMSO (MEK1-CRAF complex; compound 0.01 μM): 0.69; KD Ratio (mean), compound to DMSO (MEK1-CRAF complex; compound 0.1 μM): 0.52; KD Ratio (mean), compound to DMSO (MEK1-CRAF complex; compound 1 μM): 0.51 |
| 3800 | 3770 | 1430 | 0.6 | 2.8 | < 100 | > 7.00 | Cc1c(Oc2cccc(NS(=O)(=O)NCC(F)(F)F)c2Cl)c(C(=O)NC2CC2)c(Nc2ccc(I)cc2F)n(C)c1=O [Compound I-46] | – | AUC(0-inf) (Pharmacokinetics in rat): 1590 ng·h/mL; AUC(0-t) (Pharmacokinetics in rat): 1550 ng·h/mL; clearance (Pharmacokinetics in rat): 10.5 mL/min/kg; half-life (Pharmacokinetics in rat): 1.86 h; Vd (Pharmacokinetics in rat): 1 L/kg |
| 1090 | 1090 | 801 | 0.4 | 1.58 | < 100 | > 7.00 | COCCNS(=O)(=O)Nc1cccc(Oc2c(C(=O)NC3CC3)c(Nc3ccc(I)cc3F)n(C)c(=O)c2C)c1Cl [Compound I-55] | – | KD Ratio (mean), compound to DMSO (MEK1-CRAF complex; compound 0.01 μM): 0.76; KD Ratio (mean), compound to DMSO (MEK1-CRAF complex; compound 0.1 μM): 0.58; KD Ratio (mean), compound to DMSO (MEK1-CRAF complex; compound 1 μM): 0.51 |
| – | – | – | – | – | – | – | CO[C@H]1C[C@@H]2CC[C@@H](C)[C@@](O)(O2)C(=O)C(=O)N2CCCC[C@H]2C(=O)O[C@H]([C@H](C)C[C@@H]2CC[C@@H](OCCO)[C@H](OC)C2)CC(=O)[C@H](C)/C=C(\C)[C@@H](O)[C@@H](OC)C(=O)[C@H](C)C[C@H](C)/C=C/C=C/C=C/1C [Everolimus] | 5/6 cell lines | – |
| – | – | – | – | – | – | – | C[C@H](Nc1ccc2c(c1)OCCn1cc(N3C(=O)OC[C@H]3C(F)F)nc1-2)C(N)=O [Inavolisib] | 5/6 cell lines | – |
| – | – | – | – | – | – | – | Cc1ccc(NC(=O)c2ccnc(C(F)(F)F)c2)cc1-c1cc(OCCO)nc(N2CCOCC2)c1 [LXH254] | 6/6 cell lines | – |
| – | – | – | – | – | – | – | O=C1CCc2c(Oc3ccc4c(c3)[C@@H]3[C@H](O4)[C@H]3c3nc4ccc(C(F)(F)F)cc4[nH]3)ccnc2N1 [Lifirafenib] | – | Loewe Synergy Score > 10 (cancer cell lines; NCI-H358, NCI-H1373, NCI-H2122): 3/3 cell lines |
| – | – | – | – | – | – | – | Cc1nc(N2CCC3(CC2)CO[C@@H](C)[C@H]3N)c(CO)nc1-c1cccc(Cl)c1Cl [RMC-4550] | 3/6 cell lines | – |
| – | – | – | – | – | – | – | C=CC(=O)N1CCN(c2nc(=O)n(-c3c(C)ccnc3C(C)C)c3nc(-c4c(O)cccc4F)c(F)cc23)[C@@H](C)C1 [Sotorasib] | – | Loewe Synergy Score > 10 (cancer cell lines; NCI-H358, NCI-H1373, NCI-H2122, MiaPACA2, NCI-H2030): 4/5 cell lines |
| – | – | – | – | – | – | – | CC1(C)CCC(CN2CCN(c3ccc(C(=O)NS(=O)(=O)c4ccc(NCC5CCOCC5)c([N+](=O)[O-])c4)c(Oc4cnc5[nH]ccc5c4)c3)CC2)=C(c2ccc(Cl)cc2)C1 [venetoclax, reference compound] | – | percent TGI [3]: 13%; weight gain [3]: 8.3%; percent TGI [4]: 46.6%; weight gain [4]: 7.5% |

— patent US20230382863A1, “MEK INHIBITORS AND USES THEREOF” (Ikena Oncology, Inc., priority 2022, published 2023)
